In assay [1] the target is T1, von Hippel-Lindau disease tumor suppressor/SWI/SNF-related matrix-associated actin-dependent regulator of chromatin subfamily A member 4 (Homo sapiens, UniProt P51532+P40337). Briefly: Protac activity at E3 ubiquitin ligase/BRG1 (unknown origin) assessed as E3 ubiquitin ligase mediated BRG1 degradation at 0.3 to 10 uM relative to control.
Target sequence in this assay (P40337 whole entry, looked up): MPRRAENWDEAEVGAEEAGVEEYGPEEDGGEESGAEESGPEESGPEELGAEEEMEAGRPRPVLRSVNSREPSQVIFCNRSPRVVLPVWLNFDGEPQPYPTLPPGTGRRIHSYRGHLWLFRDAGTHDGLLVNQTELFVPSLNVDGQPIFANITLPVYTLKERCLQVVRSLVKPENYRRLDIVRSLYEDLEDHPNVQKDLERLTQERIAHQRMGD
Target sequence in this assay (P51532 whole entry, looked up): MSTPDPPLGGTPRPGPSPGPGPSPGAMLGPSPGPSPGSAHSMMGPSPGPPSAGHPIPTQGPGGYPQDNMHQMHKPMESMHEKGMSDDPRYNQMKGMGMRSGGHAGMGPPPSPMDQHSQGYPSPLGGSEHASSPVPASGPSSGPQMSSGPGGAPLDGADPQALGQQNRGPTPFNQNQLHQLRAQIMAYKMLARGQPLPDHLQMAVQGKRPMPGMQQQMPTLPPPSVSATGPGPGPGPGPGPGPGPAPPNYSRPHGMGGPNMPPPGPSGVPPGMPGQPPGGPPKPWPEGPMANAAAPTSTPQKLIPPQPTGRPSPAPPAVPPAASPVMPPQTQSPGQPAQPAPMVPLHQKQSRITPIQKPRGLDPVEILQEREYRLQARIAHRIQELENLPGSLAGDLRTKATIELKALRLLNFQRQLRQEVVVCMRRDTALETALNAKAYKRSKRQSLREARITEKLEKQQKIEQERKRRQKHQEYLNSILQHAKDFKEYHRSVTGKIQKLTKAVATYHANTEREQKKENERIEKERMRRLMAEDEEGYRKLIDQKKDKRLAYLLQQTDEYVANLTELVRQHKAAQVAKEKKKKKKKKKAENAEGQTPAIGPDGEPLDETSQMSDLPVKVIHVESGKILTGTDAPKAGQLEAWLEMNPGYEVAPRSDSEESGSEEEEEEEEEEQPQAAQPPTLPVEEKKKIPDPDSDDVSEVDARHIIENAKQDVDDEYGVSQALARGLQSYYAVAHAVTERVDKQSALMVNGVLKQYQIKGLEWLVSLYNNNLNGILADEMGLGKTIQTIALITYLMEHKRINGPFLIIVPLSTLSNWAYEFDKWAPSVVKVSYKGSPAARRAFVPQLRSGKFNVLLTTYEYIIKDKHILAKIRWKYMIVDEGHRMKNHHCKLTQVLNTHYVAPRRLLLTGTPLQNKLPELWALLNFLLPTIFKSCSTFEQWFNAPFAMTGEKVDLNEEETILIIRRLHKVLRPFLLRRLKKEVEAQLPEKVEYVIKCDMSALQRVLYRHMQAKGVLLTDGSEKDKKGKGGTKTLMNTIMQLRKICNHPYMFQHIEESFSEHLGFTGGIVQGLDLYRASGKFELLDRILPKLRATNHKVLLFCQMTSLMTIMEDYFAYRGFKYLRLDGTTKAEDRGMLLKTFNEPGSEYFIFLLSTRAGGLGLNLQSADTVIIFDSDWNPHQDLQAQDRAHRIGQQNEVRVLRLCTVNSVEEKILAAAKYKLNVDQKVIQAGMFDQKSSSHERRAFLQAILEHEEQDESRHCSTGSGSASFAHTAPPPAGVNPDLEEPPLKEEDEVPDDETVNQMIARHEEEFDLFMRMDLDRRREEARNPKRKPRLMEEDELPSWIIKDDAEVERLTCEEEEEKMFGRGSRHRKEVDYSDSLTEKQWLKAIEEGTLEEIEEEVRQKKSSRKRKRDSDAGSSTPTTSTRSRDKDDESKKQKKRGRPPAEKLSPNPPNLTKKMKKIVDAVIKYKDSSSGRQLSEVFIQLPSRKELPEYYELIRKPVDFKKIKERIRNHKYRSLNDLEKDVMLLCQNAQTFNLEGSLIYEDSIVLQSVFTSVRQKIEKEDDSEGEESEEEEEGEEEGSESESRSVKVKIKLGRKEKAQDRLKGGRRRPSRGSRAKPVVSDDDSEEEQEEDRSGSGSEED
In assay [2] the target is T1, von Hippel-Lindau disease tumor suppressor/SWI/SNF-related matrix-associated actin-dependent regulator of chromatin subfamily A member 4. As to the kind of experiment: Protac activity at E3 ubiquitin ligase/BRG1 (unknown origin) assessed as E3 ubiquitin ligase mediated BRG1 degradation.
Target sequence in this assay (P51532 whole entry): as the sequence (P51532 whole entry, looked up) above
Target sequence in this assay (P40337 whole entry): as the sequence (P40337 whole entry, looked up) above
Assay [3] has as its target T2, Protein cereblon/SWI/SNF-related matrix-associated actin-dependent regulator of chromatin subfamily A member 2 (Homo sapiens, UniProt P51531+Q96SW2). As to the kind of experiment: Protac activity at E3 ubiquitin ligase/BRM in human SW1573 cells assessed as E3 ubiquitin ligase-mediated BRM degradation incubated for 18 to 20 hrs by Western blot analysis. It counts as cell-based.

In assay [4] the target is T2, Protein cereblon/SWI/SNF-related matrix-associated actin-dependent regulator of chromatin subfamily A member 2. Briefly: Protac activity at E3 ubiquitin ligase/BRM in human SW1573 cells assessed as E3 ubiquitin ligase-mediated BRM degradation at 0.3 to 10 uM incubated for 18 to 20 hrs by Western blot analysis relative to control. Format: cell-based.

Some results are limits rather than exact numbers.

This is an account of results in ChEMBL document CHEMBL4334544, “BRM Targeting Compounds for the Potential Treatment of Cancer” (ACS Med Chem Lett, 2020).

T2 sequence (P51531 whole entry): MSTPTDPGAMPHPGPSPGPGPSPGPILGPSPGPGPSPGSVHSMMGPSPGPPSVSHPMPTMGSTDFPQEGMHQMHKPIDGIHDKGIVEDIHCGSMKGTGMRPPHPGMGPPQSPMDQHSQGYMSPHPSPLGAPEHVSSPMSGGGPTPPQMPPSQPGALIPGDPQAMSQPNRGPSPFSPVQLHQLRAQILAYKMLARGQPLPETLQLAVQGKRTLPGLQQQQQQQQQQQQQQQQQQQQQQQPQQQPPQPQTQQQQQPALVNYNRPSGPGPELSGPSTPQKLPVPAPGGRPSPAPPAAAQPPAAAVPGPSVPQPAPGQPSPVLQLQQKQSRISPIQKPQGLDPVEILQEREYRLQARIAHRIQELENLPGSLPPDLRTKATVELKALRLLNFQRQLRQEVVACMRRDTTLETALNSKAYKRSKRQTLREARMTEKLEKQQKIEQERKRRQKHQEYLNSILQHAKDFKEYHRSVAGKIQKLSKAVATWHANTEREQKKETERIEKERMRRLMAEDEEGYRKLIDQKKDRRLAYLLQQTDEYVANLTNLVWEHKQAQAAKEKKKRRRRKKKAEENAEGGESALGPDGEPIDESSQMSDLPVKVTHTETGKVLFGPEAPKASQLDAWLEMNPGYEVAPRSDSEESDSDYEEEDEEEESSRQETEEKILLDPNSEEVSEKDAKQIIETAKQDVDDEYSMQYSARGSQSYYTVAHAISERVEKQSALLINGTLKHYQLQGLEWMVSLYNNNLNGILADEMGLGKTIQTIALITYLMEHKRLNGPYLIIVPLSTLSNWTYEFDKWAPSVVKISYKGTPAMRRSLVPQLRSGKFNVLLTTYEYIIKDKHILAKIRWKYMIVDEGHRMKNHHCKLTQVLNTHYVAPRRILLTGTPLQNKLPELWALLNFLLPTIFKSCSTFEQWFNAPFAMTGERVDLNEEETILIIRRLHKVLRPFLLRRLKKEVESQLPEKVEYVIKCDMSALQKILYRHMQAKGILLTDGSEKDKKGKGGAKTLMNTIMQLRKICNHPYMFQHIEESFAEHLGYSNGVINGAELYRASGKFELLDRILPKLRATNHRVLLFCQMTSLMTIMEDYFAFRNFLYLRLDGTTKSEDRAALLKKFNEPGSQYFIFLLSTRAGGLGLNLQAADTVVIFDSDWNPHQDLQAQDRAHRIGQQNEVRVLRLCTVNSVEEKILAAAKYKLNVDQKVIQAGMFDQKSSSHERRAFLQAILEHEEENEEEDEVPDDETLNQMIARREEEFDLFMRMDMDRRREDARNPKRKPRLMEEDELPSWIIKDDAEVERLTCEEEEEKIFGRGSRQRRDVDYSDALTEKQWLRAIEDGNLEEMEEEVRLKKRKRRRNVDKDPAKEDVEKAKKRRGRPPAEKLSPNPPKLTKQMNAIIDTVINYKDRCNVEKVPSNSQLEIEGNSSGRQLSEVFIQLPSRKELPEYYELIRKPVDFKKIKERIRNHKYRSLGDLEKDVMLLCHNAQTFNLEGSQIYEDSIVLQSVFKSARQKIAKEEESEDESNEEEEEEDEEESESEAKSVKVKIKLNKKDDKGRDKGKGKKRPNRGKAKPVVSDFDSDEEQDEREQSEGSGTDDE
T2 sequence (Q96SW2 whole entry): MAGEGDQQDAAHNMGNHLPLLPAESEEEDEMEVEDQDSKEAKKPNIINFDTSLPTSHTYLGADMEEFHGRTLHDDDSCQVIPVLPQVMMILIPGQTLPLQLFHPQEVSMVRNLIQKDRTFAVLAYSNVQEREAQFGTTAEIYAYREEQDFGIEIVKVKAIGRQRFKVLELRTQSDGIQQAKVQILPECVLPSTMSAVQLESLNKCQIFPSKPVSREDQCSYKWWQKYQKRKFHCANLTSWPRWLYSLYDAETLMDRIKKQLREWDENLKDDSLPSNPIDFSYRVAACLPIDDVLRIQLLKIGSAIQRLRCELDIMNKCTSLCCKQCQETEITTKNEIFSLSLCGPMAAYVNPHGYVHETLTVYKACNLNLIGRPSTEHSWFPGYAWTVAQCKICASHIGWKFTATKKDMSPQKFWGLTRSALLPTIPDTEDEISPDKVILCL

Turning to `Cc1ncsc1-c1ccc([C@H](C)NC(=O)[C@@H]2C[C@@H](O)CN2C(=O)[C@@H](c2cc(OCCN3CCC(OC4CN(c5cc(N6C7CCC6CN(c6cc(-c8ccccc8O)nnc6N)C7)ccn5)C4)CC3)no2)C(C)C)cc1`, the %max in assay [1] and in assay [4] was above 75% each time. Further, the DC50 in assay [2] is 2.5 to 10 nM; in assay [3], below 2.5 nM.
Regarding `Cc1ncsc1-c1ccc([C@H](C)NC(=O)[C@@H]2C[C@@H](O)CN2C(=O)[C@@H](c2cc(OCCCCN3CCN(CCCCOc4cc(N5C6CCC5CN(c5cc(-c7ccccc7O)nnc5N)C6)ccn4)CC3)no2)C(C)C)cc1`, the %max in assay [1] and in assay [4] was above 75% in each case. The DC50 in assay [2] and in assay [3] was below 2.5 nM each time.
As to `Cc1ncsc1-c1ccc([C@H](C)NC(=O)[C@@H]2C[C@@H](O)CN2C(=O)[C@@H](c2cc(N3CCC(O[C@H]4C[C@H](Oc5cc(N6C7CCC6CN(c6cc(-c8ccccc8O)nnc6N)C7)ccn5)C4)CC3)no2)C(C)C)cc1`, the %max in assay [1] and in assay [4] was above 75% in each case. Also, the DC50 in assay [2] and in assay [3] was below 2.5 nM throughout.
Turning to `Cc1ncsc1-c1ccc([C@H](C)NC(=O)[C@@H]2C[C@@H](O)CN2C(=O)[C@@H](c2cc(OCCOCCOc3cc(N4C5CCC4CN(c4cc(-c6ccccc6O)nnc4N)C5)ccn3)no2)C(C)C)cc1`, the %max in assay [1] and in assay [4] was above 75% throughout. For the same compound, the DC50 in assay [2] and in assay [3] was below 2.5 nM throughout.
For `Cc1ncsc1-c1ccc([C@H](C)NC(=O)[C@@H]2C[C@@H](O)CN2C(=O)[C@@H](c2cc(OC3CN(CCN4CCC(O[C@H]5C[C@H](Oc6cc(N7C8CCC7CN(c7cc(-c9ccccc9O)nnc7N)C8)ccn6)C5)CC4)C3)no2)C(C)C)cc1`, the %max in assay [1] and in assay [4] was above 75% throughout. For the same compound, the DC50 in assay [2] was 2.5 to 10 nM; in assay [3], below 2.5 nM.
Regarding `Cc1ncsc1-c1ccc([C@H](C)NC(=O)[C@@H]2C[C@@H](O)CN2C(=O)[C@@H](c2cc(C#CCN3CCC(O[C@H]4C[C@H](Oc5cc(N6C7CCC6CN(c6cc(-c8ccccc8O)nnc6N)C7)ccn5)C4)CC3)no2)C(C)C)cc1`, the %max in assay [1] and in assay [4] was above 75% each time. For the same compound, the figures for the DC50 in assay [2] and in assay [3] were 2.5 to 10 nM and below 2.5 nM, respectively.
